Data reported in PMC10681040 (Bioorganic chemistry, 2023).

Target: human nCDase (extracellular region, residues 99–780) (Homo sapiens, UniProt Q9NR71)
Assay: RBM biochemical nCDase enzymatic activity assay
Settings: qualitative; data not shown for valproate, anacardamate, MG149

Chain of human nCDase (extracellular region, residues 99–780) (Q9NR71 99-780): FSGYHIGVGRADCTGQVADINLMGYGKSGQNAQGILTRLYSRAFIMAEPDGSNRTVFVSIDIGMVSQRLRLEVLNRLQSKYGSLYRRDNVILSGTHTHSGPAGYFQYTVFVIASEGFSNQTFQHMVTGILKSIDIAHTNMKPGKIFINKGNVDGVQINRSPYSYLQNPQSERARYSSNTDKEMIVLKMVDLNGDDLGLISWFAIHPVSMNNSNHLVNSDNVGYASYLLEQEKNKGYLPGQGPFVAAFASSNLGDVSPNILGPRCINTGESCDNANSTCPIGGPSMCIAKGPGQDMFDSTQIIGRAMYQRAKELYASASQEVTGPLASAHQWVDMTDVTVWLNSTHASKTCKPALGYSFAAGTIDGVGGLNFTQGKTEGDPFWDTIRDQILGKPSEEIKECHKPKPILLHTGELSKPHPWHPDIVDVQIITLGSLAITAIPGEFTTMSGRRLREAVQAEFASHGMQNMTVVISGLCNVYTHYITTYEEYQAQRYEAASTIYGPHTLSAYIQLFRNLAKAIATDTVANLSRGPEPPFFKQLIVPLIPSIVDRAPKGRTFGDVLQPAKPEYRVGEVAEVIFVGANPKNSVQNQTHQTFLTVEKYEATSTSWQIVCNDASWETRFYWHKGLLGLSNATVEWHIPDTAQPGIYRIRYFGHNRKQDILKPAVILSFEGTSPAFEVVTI

Compound	nCDase inhibitory activity (in words)
CCCC(CCC)C(=O)O [valproate]	exhibited nCDase inhibitory activity
CC(/C=C/C(=O)NO)=C\[C@@H](C)C(=O)c1ccc(N(C)C)cc1 [Trichostatin A]	nCDase inhibitory activity
CCCCCCCc1ccc(CCc2cccc(O)c2C(=O)O)cc1 [MG149]	exhibited nCDase inhibitory activity
anacardamate	exhibited nCDase inhibitory activity
